Assay results taken from patent US20240279215A1 (Cytokinetics, Incorporated, priority 2022, published 2024).

Target: human NAMPT (Homo sapiens (Human), UniProt P43490)
Test: NMN fluorescence biochemical assay (human recombinant NAMPT enzyme assay)
In short: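 Activation of recombinant human NAMPT (6 nM) was tested with 2.5 mM ATP, 20 μM PRPP and 150 μM nicotinamide in 50 mM HEPES pH 7.2 for 60 min at ambient temperature. NMN was derivatized with acetophenone/KOH/formic acid and read by fluorescence (355/460 nm) after 40 min.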

Sequence of human NAMPT (P43490 whole entry): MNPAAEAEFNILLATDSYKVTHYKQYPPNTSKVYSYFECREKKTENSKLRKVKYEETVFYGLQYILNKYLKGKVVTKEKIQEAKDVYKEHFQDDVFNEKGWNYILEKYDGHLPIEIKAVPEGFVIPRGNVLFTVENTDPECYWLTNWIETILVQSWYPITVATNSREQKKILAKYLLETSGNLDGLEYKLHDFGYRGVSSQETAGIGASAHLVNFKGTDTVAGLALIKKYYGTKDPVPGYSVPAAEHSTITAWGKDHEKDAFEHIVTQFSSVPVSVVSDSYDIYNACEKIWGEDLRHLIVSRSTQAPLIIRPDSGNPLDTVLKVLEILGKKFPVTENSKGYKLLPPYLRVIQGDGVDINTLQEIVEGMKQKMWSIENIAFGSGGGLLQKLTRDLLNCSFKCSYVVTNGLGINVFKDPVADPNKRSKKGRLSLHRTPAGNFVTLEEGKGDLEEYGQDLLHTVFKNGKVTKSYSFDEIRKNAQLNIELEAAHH

Row | Structure (SMILES) | AC1.4 Human [µM] | EC50 [µM]
1 | O=C(Nc1ccc(Cc2ncccn2)cc1)OCc1ccc(Cl)cc1 [Compound 279, 4-chlorobenzyl (4-(pyrimidin-2-ylmethyl)phenyl)carbamate] | 3.43 | 29
2 | CO[C@H]1CC[C@@H](NC(=O)Cc2ccc(NC(=O)OCc3ccc(Cl)cc3)cc2)CC1 [Compound 280, (4-chlorophenyl)methyl N-[4-({[(1s,4s)-4-methoxycyclohexyl]carbamoyl}methyl)phenyl]carbamate] | 3.51 | 14.5
3 | CC(=O)N1CCOC(c2ccc(NC(=O)OCc3ccc(Cl)cc3)cc2)C1 (stereo not shown) [Compound 281, (4-chlorophenyl)methyl N-[4-(4-acetylmorpholin-2-yl)phenyl]carbamate] | 3.56 | 46.9
4 | O=C(Nc1ccc(CC(=O)N2CCN(CC(F)F)CC2)cc1)OCc1ccc(Cl)cc1 [Compound 282, (4-chlorophenyl)methyl N-(4-{2-[4-(2,2-difluoroethyl)piperazin-1-yl]-2-oxoethyl}phenyl)carbamate] | 3.57 | 19.1
5 | COC1CCN(C(=O)Cc2ccc(NC(=O)OCc3ccc(Cl)cc3)cc2)CC1 [Compound 283, (4-chlorophenyl)methyl N-{4-[2-(4-methoxypiperidin-1-yl)-2-oxoethyl]phenyl}carbamate] | 3.61 | 47.9
6 | CN1CCN(Cc2ccc(NC(=O)OCc3ccc(Cl)cc3)cc2)CC1=O [Compound 284, (4-chlorophenyl)methyl N-{4-[(4-methyl-3-oxopiperazin-1-yl)methyl]phenyl}carbamate] | 3.72 | 19.2
7 | O=C(Nc1ccc(CNC(=O)C2CCOCC2)cc1)OCc1ccc(Cl)cc1 [Compound 285, (4-chlorophenyl)methyl N-{4-[(oxan-4-ylformamido)methyl]phenyl}carbamate] | 3.78 | 9.55
8 | O=C(Nc1ccc(CNC(=O)N2CCCCC2)cc1)OCc1ccc(Cl)cc1 [Compound 286, (4-chlorophenyl)methyl N-{4-[(piperidine-1-carbonylamino)methyl]phenyl}carbamate] | 3.79 | 14.2
9 | O=C(Nc1ccc(CC(=O)N2CCCC[C@@H]2CO)cc1)OCc1ccc(Cl)cc1 [Compound 287, (4-chlorophenyl)methyl N-(4-{2-[(2R)-2-(hydroxymethyl)piperidin-1-yl]-2-oxoethyl}phenyl)carbamate] | 3.81 | 20.6
10 | CC(C)(C)OC(=O)N1CC(OCc2ccc(NC(=O)OCc3ccc(Cl)cc3)cc2)C1 [Compound 288, tert-butyl 3-{[4-({[(4-chlorophenyl)methoxy]carbonyl}amino)phenyl]methoxy}azetidine-1-carboxylate] | 3.88 | 3.45
11 | CCc1cc(C(=O)N(C)Cc2ccc(NC(=O)OCc3ccc(Cl)cc3)cc2)n(C)n1 [Compound 289, (4-chlorophenyl)methyl N-(4-{[1-(5-ethyl-2-methylpyrazol-3-yl)-N-methylformamido]methyl}phenyl)carbamate] | 3.95 | 50.3
12 | C[C@H](NC(=O)c1ocnc1C1CC1)c1ccc(NC(=O)OCc2ccc(Cl)cc2)cc1 [Compound 290, (4-chlorophenyl)methyl N-{4-[(1S)-1-[(4-cyclopropyl-1,3-oxazol-5-yl)formamido]ethyl]phenyl}carbamate] | 3.95 | 16.9
13 | COc1ccc(COC(=O)Nc2ccc(COC3CCN(C4COC4)CC3)cc2)cc1 [Compound 291, 4-methoxybenzyl (4-(((1-(oxetan-3-yl)piperidin-4-yl)oxy)methyl)phenyl)carbamate] | 3.97 | 38.2
14 | Cc1ccc(Cc2ccc(NC(=O)OCc3ccc(Cl)cc3)cc2)cn1 [Compound 292, 4-chlorobenzyl (4-((6-methylpyridin-3-yl)methyl)phenyl)carbamate] | 4.12 | 20
